Experimental data taken from patent US9580433B2 (Janssen Pharmaceutica NV, priority 2013, dated 2017).
Read-outs that look alike come from different tables or passages of the source.

What was measured:
[1] = biological target: T1, BACE1 (Homo sapiens, UniProt P56817); assay: BACE1 biochemical FRET based assay
T1 construct: recombinant BACE1 protein in a final concentration of 0.04 g/ml

[2] = test system: Abeta total produced and secreted by SKNBE2 cells (BACE1); assay: BACE1 cellular αLisa assay in SKNBE2 cells, Abeta total; format: cell-based, human; details: SKNBE2 cells expressing hAPP695, 18 hours incubation; for IC50: Homo sapiens, SKNBE2, 18 h, read-out: Cellular αLisa assay in SKNBE2 cells Abetatotal pIC50 (converted)
Procedure: (§1) BACE1 Cellular αLisa Assay in SKNBE2 Cells
(§2) In two αLisa assays the levels of Abeta total and Abeta 1-42 produced and secreted into the medium of human neuroblastoma SKNBE2 cells are quantified. The assay is based on the human neuroblastoma SKNBE2 expressing the wild type Amyloid Precursor Protein (hAPP695). The compounds are diluted and added to these cells, incubated for 18 hours and then measurements of Abeta 1-42 and Abeta total are taken. Abeta total and Abeta 1-42 are measured by sandwich αLisa. αLisa is a sandwich assay using biotinylated antibody AbN/25 attached to streptavidin coated beads and antibody Ab4G8 or cAb42/26 conjugated acceptor beads for the detection of Abeta total and Abeta 1-42 respectively. In the presence of Abeta total or Abeta 1-42, the beads come into close proximity. The excitation of the donor beads provokes the release of singlet oxygen molecules that trigger a cascade of energy transfer in the acceptor beads, resulting in light emission. Light emission is measured after 1 hour incubation (excitation at […] and emission at 615 nm).
(§3) A best-fit curve is fitted by a minimum sum of squares method to the plot of % Controlmin versus compound concentration.

[3] = biological target: T2, BACE2 (Homo sapiens, UniProt Q9Y5Z0); assay: BACE2 biochemical FRET based assay; details: recombinant BACE2, 450 min, pH 5.0; read-out: BACE2 Biochemical FRET based assay pIC50 (converted)
T2 construct: recombinant BACE2 protein in a final concentration of 0.4 μg/ml
T2 sequence (Q9Y5Z0 63-518): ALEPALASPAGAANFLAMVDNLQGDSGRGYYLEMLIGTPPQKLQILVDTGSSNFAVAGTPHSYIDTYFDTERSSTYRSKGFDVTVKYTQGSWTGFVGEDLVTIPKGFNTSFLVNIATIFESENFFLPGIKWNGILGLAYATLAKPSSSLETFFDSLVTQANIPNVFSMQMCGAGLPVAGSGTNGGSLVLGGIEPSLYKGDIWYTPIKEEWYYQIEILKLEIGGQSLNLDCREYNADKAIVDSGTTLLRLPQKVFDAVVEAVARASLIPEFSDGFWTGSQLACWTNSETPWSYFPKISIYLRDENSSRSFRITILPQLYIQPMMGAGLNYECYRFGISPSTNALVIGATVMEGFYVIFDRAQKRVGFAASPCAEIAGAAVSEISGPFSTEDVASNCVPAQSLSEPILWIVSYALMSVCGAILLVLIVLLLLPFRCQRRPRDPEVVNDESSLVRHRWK

[4] = test system: Abeta 1-42 produced and secreted by SKNBE2 cells (BACE1); assay: BACE1 cellular αLisa assay in SKNBE2 cells, Abeta 1-42; format: cell-based, human; details: SKNBE2 cells expressing hAPP695, 18 hours incubation; for IC50: Homo sapiens, SKNBE2, 18 h, read-out: Cellular αLisa assay in SKNBE2 cells Abeta 42 pIC50 (converted)
Procedure: as §1, §2, §3

[5] = recombinant BACE1, 450 min, pH 5.0, read-out: BACE1 Biochemical FRET based assay pIC50 (converted)
[6] = Table 10, comparison with WO2012/085038 compounds, read-out: IC50 (nM), BACE1 biochemical FRET based assay

T1 sequence (P56817 46-501): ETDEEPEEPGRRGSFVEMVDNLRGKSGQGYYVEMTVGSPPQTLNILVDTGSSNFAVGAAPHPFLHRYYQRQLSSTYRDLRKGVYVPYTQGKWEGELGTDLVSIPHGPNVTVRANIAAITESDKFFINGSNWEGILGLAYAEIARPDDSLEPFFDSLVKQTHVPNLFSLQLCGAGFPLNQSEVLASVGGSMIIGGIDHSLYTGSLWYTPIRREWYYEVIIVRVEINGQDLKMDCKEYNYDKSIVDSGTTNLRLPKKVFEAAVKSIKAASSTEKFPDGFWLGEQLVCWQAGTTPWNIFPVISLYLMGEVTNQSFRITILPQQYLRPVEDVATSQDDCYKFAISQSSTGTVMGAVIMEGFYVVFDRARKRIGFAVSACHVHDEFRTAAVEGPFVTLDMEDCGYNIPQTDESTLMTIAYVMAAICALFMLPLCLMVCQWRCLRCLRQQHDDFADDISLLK

Row | Structure (SMILES) | IC50 [1, 5] | IC50 [2] | IC50 [3] | IC50 [4] | Cellular αLisa assay in SKNBE2 cells Abetatotal pIC50 [2] | Cellular αLisa assay in SKNBE2 cells Abeta 42 pIC50 [4] | IC50 [1, 6]
1 | COc1cnc(C(=O)Nc2ccc(F)c(C3(CF)Cn4cncc4C(N)=N3)c2)cn1 (racemic) [Compound 13, (rac)-N-{3-[8-Amino-6-(fluoromethyl)-5,6-dihydroimidazo[1,5-a]pyrazin-6-yl]-4-fluorophenyl}-5-methoxypyrazine-2-carboxamide] | 8.32 nM | 3.63 nM | 93.3 nM | 3.63 nM | – | – | –
2 | COc1cnc(C(=O)Nc2ccc(F)c(C3(CF)Cn4cncc4C(N)=N3)c2)cn1 (single isomer, unassigned) [Compound 14, N-{3-[8-amino-6-(fluoromethyl)-5,6-dihydroimidazo[1,5-a]pyrazin-6-yl]-4-fluorophenyl}-5-methoxypyrazine-2-carboxamide (R or S)] | 933 nM | – | 5370 nM | – | 6.06 | 6.07 | –
3 | COc1cnc(C(=O)Nc2ccc(F)c(C3(CF)Cn4cncc4C(N)=N3)c2)cn1 (single isomer, unassigned) [Compound 15, N-{3-[8-amino-6-(fluoromethyl)-5,6-dihydroimidazo[1,5-a]pyrazin-6-yl]-4-fluorophenyl}-5-methoxypyrazine-2-carboxamide (S or R)] | 2.24 nM | – | 37.2 nM | – | 8.74 | 8.74 | –
4 | C[C@@]1(c2cc(NC(=O)c3ccc(Cl)cn3)ccc2F)Cn2c(C(F)F)cnc2C(N)=N1 [74 (WO2012/085038), reference compound] | – | – | – | – | – | – | 18.6 nM
5 | C[C@@]1(c2cc(NC(=O)c3ccc(C#N)cn3)ccc2F)Cn2c(C(F)F)cnc2C(N)=N1 [75 (WO2012/085038), reference compound] | – | – | – | – | – | – | 13.8 nM
6 | COc1cnc(C(=O)Nc2ccc(F)c([C@]3(C)Cn4c(C(F)F)cnc4C(N)=N3)c2)cn1 [76 (WO2012/085038), reference compound] | – | – | – | – | – | – | 83.2 nM
7 | COc1cnc(C(=O)Nc2ccc(F)c([C@]3(C)Cn4cncc4C(N)=N3)c2)cn1 [Compound 1, N-{3-[(6R)-8-Amino-6-methyl-5,6-dihydroimidazo[1,5-a]pyrazin-6-yl]-4-fluorophenyl}-5-methoxypyrazine-2-carboxamide] | 4.9 nM | 2.75 nM | 55 nM | 3.31 nM | – | – | –
8 | C[C@@]1(c2cc(-c3cncnc3)ccc2F)Cn2cncc2C(N)=N1 [Compound 2, (6R)-6-(2-Fluoro-5-pyrimidin-5-ylphenyl)-6-methyl-5,6-dihydroimidazo[1,5-a]pyrazin-8-amine] | 708 nM | 229 nM | 7240 nM | 245 nM | – | – | –
9 | C[C@@]1(c2cc(NC(=O)c3ccc(Cl)cn3)ccc2F)Cn2cncc2C(N)=N1 [Compound 3, N-{3-[(6R)-8-amino-6-methyl-5,6-dihydroimidazo[1,5-a]pyrazin-6-yl]-4-fluorophenyl}-5-chloropyridine-2-carboxamide] | 3.16 nM | 2.34 nM | 4.07 nM | 2.95 nM | – | – | 3.16 nM
10 | Cc1ncn2c1C(N)=N[C@](C)(c1cc(-c3cncnc3)ccc1F)C2 [Compound 6, (6R)-6-(2-Fluoro-5-pyrimidin-5-ylphenyl)-1,6-dimethyl-5,6-dihydroimidazo[1,5-a]pyrazin-8-amine] | > 10000 nM | > 10000 nM | – | > 10000 nM | – | – | –
11 | Cc1cc(C#N)cnc1C(=O)Nc1ccc(F)c([C@]2(C)Cn3cncc3C(N)=N2)c1 [Compound 7, N-{3-[(6R)-8-amino-6-methyl-5H-imidazo[1,5-a]pyrazin-6-yl]-4-fluoro-phenyl}-5-cyano-3-methyl-pyridine-2-carboxamide] | 3.98 nM | 5.5 nM | 8.13 nM | 6.17 nM | – | – | –
12 | C[C@@]1(c2cc(NC(=O)c3ccc(F)cn3)ccc2F)Cn2cncc2C(N)=N1 [Compound 8, N-{3-[(6R)-8-amino-6-methyl-5,6-dihydroimidazo[1,5-a]pyrazin-6-yl]-4-fluorophenyl}-5-fluoropyridine-2-carboxamide] | 22.4 nM | 17.4 nM | 12.6 nM | 19.1 nM | – | – | –
13 | C[C@@]1(c2cc(NC(=O)c3ccc(C#N)cn3)ccc2F)Cn2c(cnc2C#N)C(N)=N1 [Compound 9, N-{3-[(6R)-8-Amino-3-cyano-6-methyl-5,6-dihydroimidazo[1,5-a]pyrazin-6-yl]-4-fluorophenyl}-5-cyanopyridine-2-carboxamide] | 1.45 nM | 2.24 nM | 2.14 nM | 2 nM | – | – | –
14 | C[C@@]1(c2cc(NC(=O)c3ccc(C#N)cn3)ccc2F)Cn2c(cnc2C(F)F)C(N)=N1 [Compound 10, N-{3-[(6R)-8-amino-3-(difluoromethyl)-6-methyl-5,6-dihydroimidazo[1,5-a]pyrazin-6-yl]-4-fluorophenyl}-5-cyanopyridine-2-carboxamide] | 3.47 nM | 1.07 nM | 15.8 nM | 0.955 nM | – | – | 3.47 nM
15 | C[C@@]1(c2cc(NC(=O)c3ccc(Cl)cn3)ccc2F)Cn2c(cnc2C(F)F)C(N)=N1 [Compound 11, N-{3-[(6R)-8-amino-3-(difluoromethyl)-6-methyl-5,6-dihydroimidazo[1,5-a]pyrazin-6-yl]-4-fluoropheny}-5-chloropyridine-2-carboxamide] | 3.16 nM | 0.631 nM | 2.75 nM | 0.575 nM | – | – | 3.16 nM
16 | COc1cnc(C(=O)Nc2ccc(F)c([C@]3(C)Cn4c(cnc4C(F)F)C(N)=N3)c2)cn1 [Compound 12, N-{3-[(6R)-8-amino-3-(difluoromethyl)-6-methyl-5,6-dihydroimidazo[1,5-a]pyrazin-6-yl]-4-fluoropheny}-5-methoxypyrazine-2-carboxamide] | 3.8 nM | 0.851 nM | 24 nM | 0.813 nM | – | – | 3.8 nM
17 | C[C@@]1(c2cc(NC(=O)c3ccc(C#N)cn3)ccc2F)Cn2c(cnc2CC2CC2)C(N)=N1 [Compound 16, N-{3-[(6R)-8-Amino-3-(cyclopropylmethyl)-6-methyl-5,6-dihydroimidazo[1,5-a]pyrazin-6-yl]-4-fluorophenyl}-5-cyanopyridine-2-carboxamide] | 1.38 nM | 2.14 nM | 9.55 nM | 1.91 nM | – | – | –
18 | CC(=O)NCc1ncc2n1C[C@@](C)(c1cc(NC(=O)c3ccc(C#N)cn3)ccc1F)N=C2N [Compound 17, N-(3-{(6R)-3-[(Acetylamino)methyl]-8-amino-6-methyl-5,6-dihydroimidazo[1,5-a]pyrazin-6-yl}-4-fluorophenyl)-5-cyanopyridine-2-carboxamide] | 1.86 nM | 5.25 nM | – | 4.79 nM | – | – | –
